Data from patent publication US7374919B2 (GlycoZym ApS, priority 1998, dated 2008).
No end group written: not given here.

Experiments:
Format in all cases: biochemical
β4Gal-T2 = target: T1, β4Gal-T2 (Homo sapiens, UniProt O60909); assay: β4Gal-T2 galactosyltransferase activity assay (soluble enzyme, media of infected Sf9 cells); conditions: for inhibition of β4Gal-T2 by high acceptor substrate concentrations: FIGS. 5A and 5B, to higher degree than bovine milk β4Gal-transferase and β4Gal-T3; for donor substrate utilisation by β4Gal-T2 (in words): with the acceptor substrates tested
T1 construct: An expression construct designed to encode amino acid residues 31-372 of β4Gal-T2 was prepared by RT-PCR; secretion signal of vector pAcGP67 (gp67 leader; own knowledge of the vector) (N); made in house; host or cells: Sf9 (Spodoptera frugiperda) cells, baculovirus; unpurified culture supernatant
T1 sequence (O60909 31-372): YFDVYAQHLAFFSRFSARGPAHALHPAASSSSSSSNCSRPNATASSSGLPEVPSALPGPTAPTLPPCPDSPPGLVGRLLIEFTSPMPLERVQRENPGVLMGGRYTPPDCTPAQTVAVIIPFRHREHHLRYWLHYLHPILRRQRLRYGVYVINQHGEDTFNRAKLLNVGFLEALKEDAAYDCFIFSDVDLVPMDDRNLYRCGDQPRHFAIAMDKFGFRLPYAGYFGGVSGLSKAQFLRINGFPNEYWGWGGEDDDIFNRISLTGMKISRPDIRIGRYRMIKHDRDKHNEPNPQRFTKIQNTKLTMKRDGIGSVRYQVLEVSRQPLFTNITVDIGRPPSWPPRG
Excerpt: (§1) The PCR product were cloned into the BamHI site of pAcGP67 (Pharmingen), and the construct sequenced to verify correct insertion and sequence. The plasmid pAcGP67-β4Gal-T2-sol was co-transfected with Baculo-Goldä DNA (Pharmingen) as described previously (Bennett et al., 1996). Recombinant Baculo-virus were obtained after two successive amplifications in Sf9 cells grown in serum-containing medium, and titres of virus were estimated by titration in 24-well plates with monitoring of enzyme activities. Controls included pAcGP67-β4Gal-T3-sol (Almeida et al., 1997) and pAcGP67-GalNAc-T3-sol (Bennett et al., 1996).
(§2) Standard assays were performed in […] total reaction mixtures containing 25 mM Tris (pH 7.5), 10 mM MnCl2, 0.25% Triton X-100, […] UDP-[^14C]-Gal (2,300 cpm/nmol) (Amersham), and varying concentration of acceptor substrates (Sigma) (see Table I for structures). The soluble constructs were assayed with […] of culture supernatant from infected cells, whereas the full length construct was assayed with 1% Triton X-100 homogenates of washed cells. Bovine milk P1,4Gal-transferase (Sigma) was used as control.
Reaction products were quantified by Dowex-1 chromatography. […] The transfer of Gal was evaluated after precipitation by filtration through Whatman GF/C glass fiber filters.

β4Gal-T3 = target: T2, β4Gal-T3 (Homo sapiens, UniProt O60512); assay: β4Gal-T3 galactosyltransferase activity assay (soluble enzyme, Sf9 media)
T2 construct: media from Sf9 cells expressing secreted forms of either β4Gal-T2 or -T3 were used as enzyme sources; secretion signal of vector pAcGP67 (gp67 leader; own knowledge of the vector) (N); made in house; host or cells: Sf9 cells, baculovirus; unpurified culture supernatant
Experimental: as §1, with “An expression construct designed to encode amino acid residues 31-372 of β4Gal-T2 was prepared by RT-PCR with mRNA from Colo205 cell line, using the primer pair EBER100FOR (5′-[…]; SEQ ID NO: 9) and EBER114 (5′-[…]; SEQ ID NO: 10) with BamH1 restriction sites (FIG. 2). The PCR” for “The PCR”
as §2
(§3) Reaction products were quantified by Dowex-1 chromatography. Assays with hen egg Ovalbumin (Sigma), asialo-fetuin (Sigma), and asialo-agalacto-fetuin (Sigma, treated with bgalactosidase) were performed with the standard reaction mixture modified to contain […] UDP-Gal, 54 mM NaCl, and 0.5 mg Ovalbumin. The transfer of Gal was evaluated after precipitation by filtration through Whatman GF/C glass fiber filters.

Bovine milk β4Gal-T = target: T3, Bovine milk β4Gal-T (Bos taurus, UniProt P08037); assay: Bovine milk β4Gal-transferase activity assay (control enzyme)
T3 construct: Purified bovine milk enzyme; purchased Sigma; host or cells: bovine milk
T3 sequence (P08037 79-402 limits assumed): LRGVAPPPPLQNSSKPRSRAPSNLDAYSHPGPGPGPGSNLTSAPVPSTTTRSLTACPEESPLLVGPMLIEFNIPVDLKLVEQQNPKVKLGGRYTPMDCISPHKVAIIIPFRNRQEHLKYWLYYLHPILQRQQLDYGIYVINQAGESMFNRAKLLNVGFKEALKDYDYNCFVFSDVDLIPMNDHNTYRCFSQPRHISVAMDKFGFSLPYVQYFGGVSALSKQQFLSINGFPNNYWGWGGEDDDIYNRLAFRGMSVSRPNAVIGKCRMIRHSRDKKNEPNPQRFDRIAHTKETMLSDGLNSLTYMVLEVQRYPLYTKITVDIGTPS
Experimental: as §2, §3

[1] = substrate concentration 3 mM, media of infected Sf9 cells, background subtracted
[2] = substrate concentration 1 mM, media of infected Sf9 cells, background subtracted
[3] = substrate concentration 9 mM, media of infected Sf9 cells, background subtracted

T2 sequence (O60512 32-393 limits assumed): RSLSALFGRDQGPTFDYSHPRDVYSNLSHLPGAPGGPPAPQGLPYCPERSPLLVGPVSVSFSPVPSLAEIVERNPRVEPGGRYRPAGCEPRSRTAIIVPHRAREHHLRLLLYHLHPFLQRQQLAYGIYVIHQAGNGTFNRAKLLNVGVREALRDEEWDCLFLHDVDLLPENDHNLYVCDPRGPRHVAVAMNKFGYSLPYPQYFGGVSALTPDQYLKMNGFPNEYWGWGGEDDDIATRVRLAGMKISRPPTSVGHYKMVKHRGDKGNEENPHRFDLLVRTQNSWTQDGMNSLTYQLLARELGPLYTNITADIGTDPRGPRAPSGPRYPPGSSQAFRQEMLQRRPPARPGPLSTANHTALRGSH

Compound	β4Gal-T2 activity with acceptor substrate (β4Gal-T2; [1]) [nmol/min/mL]	β4Gal-T2 activity with acceptor substrate (β4Gal-T2; [2]) [nmol/min/mL]	β4Gal-T2 activity with acceptor substrate (β4Gal-T2; [3]) [nmol/min/mL]	further results
CC(=O)N[C@H]1[C@H](Oc2ccc3c(C)cc(=O)oc3c2)O[C@H](CO)[C@H](O)[C@@H]1O [4-Me-lumb-β-D-GalNAc]	0.0	–	–	–
Cc1cc(=O)oc2cc(O[C@@H]3O[C@H](CO)[C@H](O)[C@H](O)[C@H]3O)ccc12 [4-Me-lumb-β-D-Gal]	0.0	–	–	–
CC(=O)N[C@H]1[C@H](Oc2ccc3c(C)cc(=O)oc3c2)O[C@H](CO)[C@@H](O)[C@@H]1O [4-Me-lumb-β-D-GlcNAc]	0.6	0.8	0.4	–
CC(=O)N[C@H]1[C@@H](OCc2ccccc2)O[C@H](CO)[C@@H](O)[C@@H]1O [Bz-α-D-GlcNAc]	1.1	0.4	1.7	–
CC(=O)N[C@H]1[C@H](OCc2ccccc2)O[C@H](CO)[C@@H](O)[C@@H]1O [Bz-β-D-GlcNAc]	3.6	6.8	1.5	β4Gal-T3 activity with acceptor substrate (β4Gal-T3; β-D-GlcNAc-1-Bz at 2 mM): 3.9 nmol/min/mL; Bovine milk β4Gal-T activity with acceptor substrate (Bovine milk β4Gal-T; β-D-GlcNAc-1-Bz at 0.625 mM): 3.4 nmol/min/µg; inhibition of β4Gal-T2 by high acceptor substrate concentrations (β4Gal-T2): inhibited at high concentrations; Km (β4Gal-T2; β4Gal-T2, read-out: apparent Km for acceptor substrate): 160 µM; β4Gal-T2 activity with acceptor substrate (β4Gal-T2; β-D-GlcNAc-1-Bz at 0.25 mM): 3.5 nmol/min/mL
CC(=O)N[C@H]1C(O)O[C@H](CO)[C@@H](O)[C@@H]1O (stereo partly drawn) [D-GlcNAc]	3.2	1.4	4.8	inhibition of β4Gal-T2 by high acceptor substrate concentrations (β4Gal-T2): inhibited at high concentrations
CC(=O)N[C@H]1[C@@H](OP(=O)(O)OP(=O)(O)OC[C@H]2O[C@@H](n3ccc(=O)[nH]c3=O)[C@H](O)[C@@H]2O)O[C@H](CO)[C@H](O)[C@@H]1O [UDP-GalNAc]	–	–	–	donor substrate utilisation by β4Gal-T2 (in words) (β4Gal-T2): did not utilise
CC(=O)N[C@H]1[C@@H](OP(=O)(O)OP(=O)(O)OC[C@H]2O[C@@H](n3ccc(=O)[nH]c3=O)[C@H](O)[C@@H]2O)O[C@H](CO)[C@@H](O)[C@@H]1O [UDP-GlcNAc]	–	–	–	donor substrate utilisation by β4Gal-T2 (in words) (β4Gal-T2): did not utilise
O=C[C@H](O)[C@@H](O)[C@H](O)[C@H](O)CO [glucose]	–	–	–	acceptor substrate of soluble β4Gal-T2 activity (in words) (β4Gal-T2): not an acceptor
CC(=O)N[C@H]1[C@@H](Oc2ccccc2[N+](=O)[O-])O[C@H](CO)[C@@H](O)[C@@H]1O [o-Nph-α-D-GlcNAc]	0.8	0.4	1.5	–
CC(=O)N[C@H]1[C@H](Oc2ccccc2[N+](=O)[O-])O[C@H](CO)[C@H](O)[C@@H]1O [o-Nph-β-D-GalNAc]	0.0	–	–	–
O=[N+]([O-])c1ccccc1O[C@@H]1O[C@H](CO)[C@H](O)[C@H](O)[C@H]1O [o-Nph-β-D-Gal]	0.0	–	–	–
CC(=O)N[C@@H]1[C@@H](O)[C@H](O)[C@@H](CO)O[C@H]1Sc1ccc([N+](=O)[O-])cc1 [p-Nph-1-thio-β-D-GlcNAc]	1.6	1.2	0.2	–
CC(=O)N[C@H]1[C@H](Oc2ccc([N+](=O)[O-])cc2)O[C@H](CO)[C@@H](O)[C@@H]1O [p-Nph-β-D-GlcNAc]	2.3	3.0	0.9	–
COC1OC(COC2OC(CO)C(O)C(O)C2NC(C)=O)C(O)C(O)C1O [β-D-CLcNAc-(1-6)-α-D-Man-1-OMe]	11.3	8.5	–	–
COC1O[C@H](CO)[C@H](O)[C@H](O[C@@H]2O[C@H](CO)[C@H](O)[C@H](O)[C@H]2NC(C)=O)[C@H]1O (stereo partly drawn) [β-D-GlcNAc-(1-3)-β-D-Gal-1-OMe]	7.7	5.8	–	–
CC(=O)N[C@H]1[C@H](OCc2ccccc2)O[C@H](CO)[C@H](O)[C@@H]1O [βGalNAc-benzyl]	–	–	–	acceptor substrate of soluble β4Gal-T2 activity (in words) (β4Gal-T2): not
*-D-GalNAc-1-(FAPSNYPAL) (not fully specified) [GalNAc-glycopeptide acceptor substrate]	–	–	–	β4Gal-T3 activity with acceptor substrate (β4Gal-T3; glycopeptides at 0.1 mM): 0.0 nmol/min/mL; Bovine milk β4Gal-T activity with acceptor substrate (Bovine milk β4Gal-T; glycopeptides at 0.1 mM): 0.0 nmol/min/µg; β4Gal-T2 activity with acceptor substrate (β4Gal-T2; glycopeptides at 0.1 mM): 0.0 nmol/min/mL
Asialo-Fetuin: glycoprotein acceptor, asialo-fetuin (Sigma)	–	–	–	β4Gal-T3 activity with acceptor substrate (β4Gal-T3; glycoproteins at 10 mg/ml): 0.0 nmol/min/mL; Bovine milk β4Gal-T activity with acceptor substrate (Bovine milk β4Gal-T; glycoproteins at 10 mg/ml): 0.1 nmol/min/µg; β4Gal-T2 activity with acceptor substrate (β4Gal-T2; glycoproteins at 10 mg/ml): 0.2 nmol/min/mL
Asialo-agalacto-Fetuin: glycoprotein acceptor; asialo-fetuin (Sigma) treated with bgalactosidase	–	–	–	β4Gal-T3 activity with acceptor substrate (β4Gal-T3; glycoproteins at 10 mg/ml): 0.7 nmol/min/mL; Bovine milk β4Gal-T activity with acceptor substrate (Bovine milk β4Gal-T; glycoproteins at 10 mg/ml): 0.8 nmol/min/µg; β4Gal-T2 activity with acceptor substrate (β4Gal-T2; glycoproteins at 10 mg/ml): 2.8 nmol/min/mL
Bz-2-(2-β-D-GlcNAc)-α-D-GlcNAc	2.6	9.9	1.3	–
Bz-*-D-GalNAc	0.0	–	–	–
Lc3Cer	–	–	–	acceptor substrate of soluble β4Gal-T2 activity (in words) (β4Gal-T2): utilised
α-lactalbumin	–	–	–	effect of α-lactalbumin on activity with GlcNAc (Bovine milk β4Gal-T; bovine milk enzyme, FIG. 4B): inhibited; concentration of α-lactalbumin to achieve maximum activity with Glc (Bovine milk β4Gal-T; bovine milk enzyme, glucose as acceptor): 0.1 mg/mL; effect of α-lactalbumin on activity with GlcNAc (β4Gal-T2; β4Gal-T2, FIG. 4B): inhibited; concentration of α-lactalbumin to achieve maximum activity with Glc (β4Gal-T2; β4Gal-T2, glucose as acceptor): 0.4 mg/mL
β-D-GlcNAC-1-(FAPGSYPAL) (also: O-linked β-D-GlcNAc, site not given here) [synthetic O-linked βGlcNAc-glycopeptide]	–	–	–	β4Gal-T3 activity with acceptor substrate (β4Gal-T3; glycopeptides at 0.1 mM): 0.9 nmol/min/mL; β4Gal-T2 activity with acceptor substrate (β4Gal-T2; glycopeptides at 0.1 mM): 1.3 nmol/min/mL
